pKd: −log10 of the molar value.

In experiment [1] the target is T1, α1V279Aβ2γ2L (V279A) receptors (Rattus norvegicus, UniProt P18508+P62813+P63138, INS375LLRMFSFK/V306A).
T1 construct: expressed in transfected cells; host or cells: Xenopus laevis oocytes injected with mRNA (α:β:γ 1:1:10)
The experiment can be described thus: Two-electrode voltage clamp of receptors expressed in Xenopus laevis oocytes (V279A). In kind it is cell-based. The source says: (§1) DNA for wild-type GABAAR rat α1, β2, and γ2L subunits were a gift from Dr. Cynthia Czajkowski. Single alanine substitutions were introduced throughout the α1M2–M3 linker from L276-T283 in addition to the gain of function α1L9'T pore mutation (rat α1L263T) (QuikChange II, […]). Mutations V279D and V279W were introduced similarly. Each construct was verified by forward and reverse sequencing of the entire gene. mRNA for each construct was generated (mMessage mMachine T7, Ambion) for expression in X. laevis oocytes (EcoCyte Bioscience, Austin, TX). Oocytes were injected with 27–54 ng of total mRNA for α, β, and γ subunits in a 1:1:10 ratio ([Boileau et al., 2002]) (Nanoject, Drummond Scientific). Oocytes were incubated in ND96 (in mM: 96 NaCl, 2 KCl, 1 MgCl2, 1.8 CaCl2, 5 HEPES, pH 7.2) with […] gentamicin at 18°C.
(§2) Currents from expressed channels 1–3 days post-injection were recorded in two-electrode voltage clamp (Dagan TEV-200, HEKA ITC and Patchmaster software). […] PTX was diluted from a 1 M stock solution in DMSO. […] Recorded currents were analyzed with custom scripts in MATLAB (Mathworks). Recordings of concentration–response relationships were bookended by pulses of PTX to correct for any drift or rundown during the experiment. Briefly, currents were baseline subtracted to correct for drift and then scaled by a linear fit to the peak of each PTX response to correct for rundown (Figure 2—figure supplement 1).
(§3) where I is the peak current response, X is ligand concentration, EC50 is the concentration eliciting a half-maximal response, and n is the Hill slope.

For experiment [2], the target named is α1L9'Tβ2γ2L, α1L9'T/V279Aβ2γ2L, and α1β2γ2L receptors. The experiment can be described thus: MWC model of channel gating, global fit to estimated open probability. The conditions noted are these: MWC model parameter, global optimisation.
Experiment [3] deals with T2, α1L9'T/V279Wβ2γ2L GABAA receptor (L9'T/V279W) (Rattus norvegicus, UniProt P18508+P62813+P63138, INS375LLRMFSFK/L290T/V306W).
T2 construct: expressed in transfected cells; host or cells: Xenopus laevis oocytes injected with mRNA (α:β:γ 1:1:10)
T2 sequence (P62813 28-455 L290T/V306W): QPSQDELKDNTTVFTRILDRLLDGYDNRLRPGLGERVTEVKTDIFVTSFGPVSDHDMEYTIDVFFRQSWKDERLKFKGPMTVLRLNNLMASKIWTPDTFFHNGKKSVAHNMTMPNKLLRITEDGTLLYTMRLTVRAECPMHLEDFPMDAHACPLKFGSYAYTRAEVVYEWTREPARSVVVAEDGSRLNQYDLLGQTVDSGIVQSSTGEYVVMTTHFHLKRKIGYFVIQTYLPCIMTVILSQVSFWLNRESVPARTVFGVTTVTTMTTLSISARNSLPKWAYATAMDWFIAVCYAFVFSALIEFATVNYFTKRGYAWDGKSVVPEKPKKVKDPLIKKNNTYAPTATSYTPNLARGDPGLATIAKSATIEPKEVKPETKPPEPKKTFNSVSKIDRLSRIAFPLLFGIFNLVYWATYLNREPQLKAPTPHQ
T2 sequence (P63138 25-474 limits assumed, stated change not applied): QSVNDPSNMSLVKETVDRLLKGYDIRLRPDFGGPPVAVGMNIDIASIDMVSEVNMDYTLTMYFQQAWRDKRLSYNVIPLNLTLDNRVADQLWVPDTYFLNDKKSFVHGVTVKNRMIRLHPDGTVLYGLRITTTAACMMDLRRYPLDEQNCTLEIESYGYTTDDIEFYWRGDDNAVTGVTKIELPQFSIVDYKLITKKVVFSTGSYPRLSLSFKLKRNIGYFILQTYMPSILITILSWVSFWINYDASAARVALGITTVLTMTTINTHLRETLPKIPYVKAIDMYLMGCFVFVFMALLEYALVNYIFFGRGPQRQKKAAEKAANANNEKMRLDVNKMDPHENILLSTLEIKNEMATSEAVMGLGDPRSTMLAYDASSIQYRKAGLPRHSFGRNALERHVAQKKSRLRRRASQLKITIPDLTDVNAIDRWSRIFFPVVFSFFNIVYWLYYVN
T2 sequence (P18508 with tags, fused parts or gaps INS375LLRMFSFK): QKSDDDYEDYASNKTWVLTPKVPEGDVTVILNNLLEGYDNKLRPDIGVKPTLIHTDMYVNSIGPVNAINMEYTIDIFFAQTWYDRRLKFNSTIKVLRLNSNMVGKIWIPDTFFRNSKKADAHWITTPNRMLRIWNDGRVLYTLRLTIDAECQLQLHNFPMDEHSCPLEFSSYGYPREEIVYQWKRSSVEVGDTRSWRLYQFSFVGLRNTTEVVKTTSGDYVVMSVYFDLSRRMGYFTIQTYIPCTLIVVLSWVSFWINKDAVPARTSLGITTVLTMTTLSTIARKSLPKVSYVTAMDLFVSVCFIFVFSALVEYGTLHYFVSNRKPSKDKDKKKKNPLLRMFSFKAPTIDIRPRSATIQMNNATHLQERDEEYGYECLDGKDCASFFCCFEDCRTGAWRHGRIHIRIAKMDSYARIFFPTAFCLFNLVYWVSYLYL
Type of experiment: cell-based.
Excerpt: (§4) The M2–M3 linker has both high sequence and structural similarity in pLGICs. The valine at position 279 in the GABAAR α1 subunit is located near the center of the linker and is nearly always an aliphatic residue in different GABAAR subunits as well as in subunits of other pLGICs, with the exception of AChR, where it is a threonine. Even where sequences differ, structural models of the M2–M3 linker for multiple pLGICs are highly similar.
as §1, §2, §3

In experiment [4] the target is T3, α1L9'T/V279Dβ2γ2L GABAA receptor (L9'T/V279D) (Rattus norvegicus, UniProt P18508+P62813+P63138, INS375LLRMFSFK/L290T/V306D).
T3 construct: expressed in transfected cells; host or cells: Xenopus laevis oocytes injected with mRNA (α:β:γ 1:1:10)
T3 sequence (P62813 28-455 L290T/V306D): as the sequence (P62813 28-455 L290T/V306W) above, with W279D counted along it
T3 sequence (P63138 25-474 limits assumed, stated change not applied): as the sequence (P63138 25-474 limits assumed, stated change not applied) above
T3 sequence (P18508 with tags, fused parts or gaps INS375LLRMFSFK): as the sequence (P18508 with tags, fused parts or gaps INS375LLRMFSFK) above
Type of experiment: cell-based.
Excerpt: as §4, §1, §2, §3

The target in experiment [5] is T4, α1L9'T/L276Aβ2γ2L GABAA receptor (L9'T/L276A) (Rattus norvegicus, UniProt P18508+P62813+P63138, INS375LLRMFSFK/L290T/L303A).
T4 construct: expressed in transfected cells; host or cells: Xenopus laevis oocytes injected with mRNA (α:β:γ 1:1:10)
T4 sequence (P62813 28-455 L290T/L303A): as the sequence (P62813 28-455 L290T/V306W) above, with L276A, W279V counted along it
T4 sequence (P63138 25-474 limits assumed, stated change not applied): as the sequence (P63138 25-474 limits assumed, stated change not applied) above
T4 sequence (P18508 with tags, fused parts or gaps INS375LLRMFSFK): as the sequence (P18508 with tags, fused parts or gaps INS375LLRMFSFK) above
Type of experiment: cell-based.
Excerpt: (§5) We use the gain of function mutation α1L9'T that confers spontaneous channel gating in the absence of agonist that can be further modulated by BZDs ([Scheller and Forman, 2002]; [Chang and Weiss, 1999]). The primary purpose for this mutation is to enable macroscopic current responses to report on pore gating by a BZD in the absence of agonist. […] We restricted the scan primarily to the flexible loop between helical regions associated with M2 and M3 from α1L276-T283 (Figure 1; Figure 1—figure supplement 1). Two of these positions, α1A280 and α1A282, are natively alanine and were not mutated. Briefly, Xenopus laevis oocytes were co-injected with mRNA for α, β, and γ subunits in a 1:1:10 ratio, and current responses to microfluidic application of ligands were recorded in two-electrode voltage clamp. […] Current block by the pore blocker PTX was used to assess the amount of spontaneous activity and to correct for drift or rundown over the course of the experiment (see Figure 2—figure supplement 1).
(§6) BZD positive modulators alone evoke channel opening with extremely low probability ([Campo-Soria et al., 2006]), thus necessitating coapplication with an agonist to obtain robust currents from wild-type receptors ([Germann et al., 2019]). However, dissecting the effects of BZDs on either agonist binding or channel gating is severely challenged in the presence of an agonist because the two processes are intimately coupled ([Colquhoun, 1998]).
as §1, §2

For experiment [6], the target named is T5, α1L9'T/Y281Aβ2γ2L GABAA receptor (L9'T/Y281A) (Rattus norvegicus, UniProt P18508+P62813+P63138, INS375LLRMFSFK/L290T/Y308A).
T5 construct: expressed in transfected cells; host or cells: Xenopus laevis oocytes injected with mRNA (α:β:γ 1:1:10)
T5 sequence (P62813 28-455 L290T/Y308A): as the sequence (P62813 28-455 L290T/V306W) above, with W279V, Y281A counted along it
T5 sequence (P63138 25-474 limits assumed, stated change not applied): as the sequence (P63138 25-474 limits assumed, stated change not applied) above
T5 sequence (P18508 with tags, fused parts or gaps INS375LLRMFSFK): as the sequence (P18508 with tags, fused parts or gaps INS375LLRMFSFK) above
Type of experiment: cell-based.
Excerpt: as §5, §6, §1, §2

For experiment [7], the target named is T6, α1L9'T/V279Aβ2γ2L receptors (L9'T/V279A) (Rattus norvegicus, UniProt P18508+P62813+P63138, INS375LLRMFSFK/L290T/V306A).
T6 construct: expressed in transfected cells; host or cells: Xenopus laevis oocytes injected with mRNA (α:β:γ 1:1:10)
T6 sequence (P62813 28-455 L290T/V306A): as the sequence (P62813 28-455 L290T/V306W) above, with W279A counted along it
T6 sequence (P63138 25-474 limits assumed, stated change not applied): as the sequence (P63138 25-474 limits assumed, stated change not applied) above
T6 sequence (P18508 with tags, fused parts or gaps INS375LLRMFSFK): as the sequence (P18508 with tags, fused parts or gaps INS375LLRMFSFK) above
Type of experiment: cell-based.
Excerpt: as §5, §6, §1, §2

For experiment [8], the target named is T7, α1L9'T/T283Aβ2γ2L GABAA receptor (L9'T/T283A) (Rattus norvegicus, UniProt P18508+P62813+P63138, INS375LLRMFSFK/L290T/T310A).
T7 construct: expressed in transfected cells; host or cells: Xenopus laevis oocytes injected with mRNA (α:β:γ 1:1:10)
T7 sequence (P62813 28-455 L290T/T310A): as the sequence (P62813 28-455 L290T/V306W) above, with W279V, T283A counted along it
T7 sequence (P63138 25-474 limits assumed, stated change not applied): as the sequence (P63138 25-474 limits assumed, stated change not applied) above
T7 sequence (P18508 with tags, fused parts or gaps INS375LLRMFSFK): as the sequence (P18508 with tags, fused parts or gaps INS375LLRMFSFK) above
Type of experiment: cell-based.
Excerpt: as §5, §6, §1, §2

Experiment [9] has as its target T8, α1L9'T/K278Aβ2γ2L receptors (L9'T/K278A) (Rattus norvegicus, UniProt P18508+P62813+P63138, INS375LLRMFSFK/K305A/L290T).
T8 construct: expressed in transfected cells; host or cells: Xenopus laevis oocytes injected with mRNA (α:β:γ 1:1:10)
In kind it is cell-based.
Excerpt: as §5, §6, §1, §2

In experiment [10] the target is T9, α1L9'T/P277Aβ2γ2L GABAA receptor (L9'T/P277A) (Rattus norvegicus, UniProt P18508+P62813+P63138, INS375LLRMFSFK/L290T/P304A).
T9 construct: expressed in transfected cells; host or cells: Xenopus laevis oocytes injected with mRNA (α:β:γ 1:1:10)
T9 sequence (P62813 28-455 L290T/P304A): as the sequence (P62813 28-455 L290T/V306W) above, with P277A, W279V counted along it
T9 sequence (P63138 25-474 limits assumed, stated change not applied): as the sequence (P63138 25-474 limits assumed, stated change not applied) above
T9 sequence (P18508 with tags, fused parts or gaps INS375LLRMFSFK): as the sequence (P18508 with tags, fused parts or gaps INS375LLRMFSFK) above
In kind it is cell-based.
Excerpt: as §5, §6, §1, §2

In experiment [11] the target is T10, α1L9'Tβ2γ2L GABAA receptor (L9'T) (Rattus norvegicus, UniProt P18508+P62813+P63138, INS375LLRMFSFK/L290T).
T10 construct: expressed in transfected cells; host or cells: Xenopus laevis oocytes injected with mRNA (α:β:γ 1:1:10)
T10 sequence (P62813 28-455 L290T): as the sequence (P62813 28-455 L290T/V306W) above, with W279V counted along it
T10 sequence (P63138 25-474 limits assumed, stated change not applied): as the sequence (P63138 25-474 limits assumed, stated change not applied) above
T10 sequence (P18508 with tags, fused parts or gaps INS375LLRMFSFK): as the sequence (P18508 with tags, fused parts or gaps INS375LLRMFSFK) above
In kind it is cell-based.
Excerpt: as §5, §6, §1, §2

The target of experiment [12] is T11, α1β2γ2L (wild-type) GABAA receptors (Rattus norvegicus, UniProt P18508+P62813+P63138, INS375LLRMFSFK).
T11 construct: expressed in transfected cells; host or cells: Xenopus laevis oocytes injected with mRNA (α:β:γ 1:1:10)
T11 sequence (P62813 28-455, stated change not applied): as the sequence (P62813 28-455 L290T/V306W) above, with T263L, W279V counted along it
T11 sequence (P63138 25-474 limits assumed, stated change not applied): as the sequence (P63138 25-474 limits assumed, stated change not applied) above
T11 sequence (P18508 with tags, fused parts or gaps INS375LLRMFSFK): as the sequence (P18508 with tags, fused parts or gaps INS375LLRMFSFK) above
The experiment can be described thus: Two-electrode voltage clamp of receptors expressed in Xenopus laevis oocytes (wild-type). In kind it is cell-based. The conditions noted are these: WT; 10 μM GABA + 1 μM FG-7142.
Excerpt: as §1
Currents from expressed channels 1–3 days post-injection were recorded in two-electrode voltage clamp (Dagan TEV-200, HEKA ITC and Patchmaster software). […] PTX was diluted from a 1 M stock solution in DMSO. […] Recorded currents were analyzed with custom scripts in MATLAB (Mathworks). Recordings of concentration–response relationships were bookended by pulses of PTX to correct for any drift or rundown during the experiment. […]

T8 sequence (P62813 28-455 L290T/K305A): as the sequence (P62813 28-455 L290T/V306W) above, with K278A, W279V counted along it
T8 sequence (P63138 25-474 limits assumed, stated change not applied): as the sequence (P63138 25-474 limits assumed, stated change not applied) above
T8 sequence (P18508 with tags, fused parts or gaps INS375LLRMFSFK): as the sequence (P18508 with tags, fused parts or gaps INS375LLRMFSFK) above
T1 sequence (P62813 28-455 V306A): as the sequence (P62813 28-455 L290T/V306W) above, with T263L, W279A counted along it
T1 sequence (P63138 25-474 limits assumed, stated change not applied): as the sequence (P63138 25-474 limits assumed, stated change not applied) above
T1 sequence (P18508 with tags, fused parts or gaps INS375LLRMFSFK): as the sequence (P18508 with tags, fused parts or gaps INS375LLRMFSFK) above

As to `CN1C(=O)CN=C(c2ccccc2)c2cc(Cl)ccc21` [DZ, diazepam], the “DZ potentiation of GABA-evoked peak current responses” value in [1] (V279A vs wild-type, 1 μM DZ, EC20-25 (30 μM) or EC100 GABA) is on record as “to a greater extent in V279A than in wild-type receptors”. Moreover, the “DZ potentiation of currents evoked with a saturating concentration of GABA” value in experiment [1] (V279A, 1 μM DZ, EC100 GABA 3–30 mM) was “potentiates V279A currents evoked with a saturating concentration of GABA”. In addition, in [2] (read-out: KD (dissociation constant for DZ)), the pKd is 6.74. Moreover, the DZ hill slope came out at 0.90 in experiment [3]; 0.58 in experiment [4]; 0.61 in experiment [5]; 1.14 in experiment [6]; 0.98 in experiment [7]; 1.42 in experiment [8]. For the same compound, the DZ hill slope in experiment [9] was determined as 0.97; in experiment [10] it was 1.24; in experiment [11] it was 1.10. Moreover, the “ΔΔGDZ (DZ's energetic contribution to pore gating, ΔG1 − ΔG0)” value in experiment [3] is −0.53 ± 0.10 (3) kcal/mol; in experiment [4], −0.52 ± 0.02 (3) kcal/mol; in [5], −0.45 ± 0.04 (5) kcal/mol; in experiment [6], −0.42 ± 0.07 (4) kcal/mol; in [7] it was −1.11 ± 0.30 (5) kcal/mol; in [8], −0.38 ± 0.04 (6) kcal/mol. Also, the “ΔΔGDZ (DZ's energetic contribution to pore gating, ΔG1 − ΔG0)” value in experiment [9] is on record as −0.44 ± 0.08 (4) kcal/mol; in experiment [10], −0.46 ± 0.20 (5) kcal/mol; in [11] it was −0.31 ± 0.04 (5) kcal/mol. Further, the “dV279A (factor by which DZ binding influences channel opening)” value in experiment [7] was 0.20.
In the case of `CNC(=O)c1cc2c(cn1)[nH]c1ccccc12` [FG-7142], the “Effect of FG-7142 on responses to ~EC20-25 GABA” value in experiment [1] (V279A, 30 μM GABA + 1 μM FG-7142, compared with WT) is given as “to a slightly lesser extent in V279A”; in experiment [12] it was “reduced”.
With `NCCCC(=O)O` [GABA], the “c (factor by which GABA binding influences channel opening)” value in [2] is on record as 0.0031.
picrotoxin [PTX]: the “IPTX /IGABA-max (ratio of PTX-sensitive to maximal GABA-evoked current amplitude)” value in experiment [3] (L9'T/V279W, 1 mM PTX, saturating GABA, mean ± SD) was 0.16 ± 0.05 (2); in experiment [4] (L9'T/V279D, 1 mM PTX, saturating GABA, mean ± SD) it was 0.02 ± 0.005 (3); in experiment [5] (L9'T/L276A, 1 mM PTX, saturating GABA, mean ± SD), 0.22 ± 0.09 (4); in experiment [6] (L9'T/Y281A, 1 mM PTX, saturating GABA, mean ± SD) it was 0.25 ± 0.07 (5); in [7] (L9'T/V279A, 1 mM PTX, saturating GABA, mean ± SD) it was 0.17 ± 0.04 (4); in experiment [8] (L9'T/T283A, 1 mM PTX, saturating GABA, mean ± SD), 0.11 ± 0.03 (5). Moreover, the “IPTX /IGABA-max (ratio of PTX-sensitive to maximal GABA-evoked current amplitude)” value is recorded as 0.20 ± 0.06 (5) in experiment [9] (L9'T/K278A, 1 mM PTX, saturating GABA, mean ± SD); 0.45 ± 0.03 (3) in experiment [10] (L9'T/P277A, 1 mM PTX, saturating GABA, mean ± SD); 0.36 ± 0.04 (5) in experiment [11] (L9'T, 1 mM PTX, saturating GABA, mean ± SD (# oocytes)).

The term pKd denotes the negative decadic logarithm of the Kd, by convention in mol/L.

Source of the values: publication PMC7899671 (eLife, 2021).
